Results published in ChEMBL document CHEMBL1142611, “Neovibsanin F and its congeners, rearranged vibsane-type diterpenes from Viburnum suspensum” (J Nat Prod, 2006).
pIC50: −log10 of the molar value. In brackets after ≈: the same amount, converted by molar mass.

Key:
Artemia = assay: Toxicity in brine shrimp at 100 ug/mL; type: organism-based; conditions: in vivo
KB = assay: Cytotoxicity against human KB cells; type: functional, cell-based
[1] = Toxicity in brine shrimp; type: organism-based; conditions: artemia, in vivo; read-out: LD50 (the source's name)

## CC(=O)C[C@@H]1OC(=O)C2=C1[C@H](/C=C/OC(=O)C=C(C)C)[C@@]1(C)CC[C@H](C(C)(C)O)[C@@H]2C1
Artemia
  Activity: Not Active

## CC(=O)C[C@@H]1OCC2=C1[C@H](/C=C/OC(=O)C=C(C)C)[C@@]1(C)CC[C@H](C(C)(C)O)[C@@H]2C1
Artemia
  Activity: Not Active

## COc1cccc2c1C(=O)c1c(O)c3c(c(O)c1C2=O)C[C@@](O)(C(=O)CO)C[C@@H]3O[C@H]1C[C@H](N)[C@H](O)[C@H](C)O1 [DOXORUBICIN]
KB
  pIC50: 8.15

## CC(=O)C[C@@H]1OCC2=C1[C@H](/C=C/OC(=O)C=C(C)C)[C@@]1(C)CC[C@@H](C(C)(C)O)[C@@H]2C1 [NEOVIBSANIN F]
[1]
  LC50: 46 µg/mL (≈ 110 µM)

## CC(=O)C[C@@H]1OCC2=C1[C@H](/C=C/OC(=O)C=C(C)C)[C@@](C)(CCC=C(C)C)C[C@H]2O [NEOVIBSANIN I]
KB
  pIC50: 4.74

## CC(C)=CCC[C@]1(C)/C=C/[C@@H](OC(=O)C=C(C)C)[C@](C)(O)/C=C/C(=O)/C(CO)=C\C1 [VIBSANIN B]
KB
  pIC50: 5.46
[1]
  LC50: 17.5 µg/mL (≈ 42 µM)
